In brackets after ≈: the same amount, converted by molar mass.
Legend:
Botrytis cinerea [1] = test: Dose response, sprayed clamshells; strawberries (Example 4); format: in vivo; conditions: spraying
Description: Five milligrams of Compound A was dissolved in 1 ml of ethanol prior to being uniformly administered to the interior of the clamshell by painting or spraying, and then dried for 5 minutes. After coating the clamshells with Compound A using various application techniques (i.e., sublimation, spraying, or painting), eight ethanol-washed strawberries were placed in the clamshell with stem end facing downwards. Each strawberry fruit was wounded using a T15 screwdriver tip to a uniform depth of eight mm (8 mm). […] Uninoculated strawberries were removed from their commercial package, and directly transferred into treated clamshells without any washing or inoculation steps.
Treated clamshells lids were closed, and then placed at 1° C. for an initial time period of 5 days. Clamshells were then removed from low temperature, and held for a second time period of 6 days at room temperature where the point of inoculation on the strawberry fruits was assessed for indication of disease incidence reported as a percentage (%). Severity of disease incidence was also reported.
This in vivo assay was used to evaluate the ability of different concentrations of Compound A to volatilize from clamshell in order to control or inhibit fruit infection by pathogenic microorganism, Botrytis cinerea. This experiment was conducted exactly as described in Example 1, with a few exceptions. After equilibrating the clamshell overnight at 21° C., Compound A was administered to the clamshells by spraying only. Compound A was sprayed onto the surface of the clamshells at a final treatment rate of 5 mg/clamshell or 1 mg/clamshell. The clamshells were then permitted to dry for 5 minutes. Strawberries were inoculated with Botrytis cinerea, placed within the clamshells for the initial time period (i.e., 5 days), and assessed for disease incidence and severity over the second time period (i.e., 6 days) as described in Example 1.

Botrytis cinerea [2] = test: Volatile release from different materials, MIC (Example 13); format: cell-based
Description: An in vitro assay is used to evaluate the ability of Compound A to volatilize from different materials and control fungal growth. […] A 3-mL volume of full-strength Potato Dextrose Agar (PDA) is added to each well. […] Plates are inoculated immediately prior to volatile fungicide treatment. The various materials are placed, in duplicate, on the underside of a polyethylene PCR plate sealing film. […] The acetone is permitted to evaporate for five minutes. The headspace around the Botrytis cinerea inoculum is then sealed inside the well by the film with the adhering disk of material containing the fungicide. Plates are inverted, placed over the treated disks and sealed to prevent any of the chemical from flaking from the disk and falling onto the inoculated agar. After three days of storage at 23° C., the cultures are evaluated for percent growth relative to control based on measurement of fungal colony diameter.

Glomerella cingulata = test: Volatile MIC assay (Example 11); format: cell-based; conditions: Colletotrichum gloeosporioides, G. cingulata
Description: A 3-mL volume of full-strength Potato Dextrose Agar (PDA) is added to each well. After cooling, 1 μL of 1×10^5 spores per mL of Botrytis cinerea, Penicillium expansum, Alternaria alternata, Glomerella cingulata, Penicillium digitatum, Monilinia fruticola, Aspergillus brasiliensis, Colletotrichum acutatum, Fusarium sambucinum, Phytophthora capsici, Geotrichum candidum, Aspergillus niger, Diplodia gossypina or Diaporthe citrii suspension is spotted onto the center of the agar. […] The headspace around the inoculum is then sealed inside the well by the film with the adhering disk containing the fungicide by inverting the plates over the treated disks and sealing to prevent any of the chemical from flaking from the disk and falling onto the inoculated agar. After 3 days of storage at 23° C., cultures are evaluated for percent growth relative to control.

Botrytis cinerea [3] = test: In vitro inhibition assay for volatile fungicide, 12-well plates (Example 7); format: cell-based
Description: For testing activity against fungi pathogens, an in vitro inhibition assay for volatile antimicrobial compounds is developed using 12-Well (7 milliliter (mL) volume per well) microtiter plates. A 3-mL volume of full-strength Potato Dextrose Agar (PDA) is added to each well. After cooling, 1 microliter (μL) of 1×10^6 per mL Botrytis cinerea spore suspension is spot pipetted to the center of the agar. For the first experiment, inoculated plates are allowed to germinate for 5 days at 4° C. For the second experiment, plates are inoculated immediately prior to volatile fungicide treatment. Small Whatman #1 filter disks (Cat. No. 1001-0155) are placed, in duplicate, on the underside of a polyethylene PCR plate sealing film.
The acetone is permitted to evaporate for 5 minutes. The headspace around the Botrytis cinerea inoculum is then sealed inside the well by the film with the adhering disk containing the fungicide. Plates are inverted, placed over the treated disks and sealed to prevent any of the chemical from flaking from the disk and falling onto the inoculated agar. After 14 days of storage at 4° C., cultures are evaluated for percent growth relative to control. […]

[4] = Inoculated Fruit, 1 mg/clamshell, Day 0
[5] = Inoculated Fruit, 1 mg/clamshell, Day 1
[6] = Inoculated Fruit, 1 mg/clamshell, Day 2
[7] = Inoculated Fruit, 1 mg/clamshell, Day 3
[8] = Inoculated Fruit, 1 mg/clamshell, Day 4
[9] = Inoculated Fruit, 1 mg/clamshell, Day 5
[10] = Inoculated Fruit, 1 mg/clamshell, Day 6
[11] = Inoculated Fruit, 5 mg/clamshell, Day 0
[12] = Inoculated Fruit, 5 mg/clamshell, Day 1
[13] = Inoculated Fruit, 5 mg/clamshell, Day 2
[14] = Inoculated Fruit, 5 mg/clamshell, Day 3
[15] = Inoculated Fruit, 5 mg/clamshell, Day 4
[16] = Inoculated Fruit, 5 mg/clamshell, Day 5
[17] = Inoculated Fruit, 5 mg/clamshell, Day 6
[18] = Uninoculated Fruit, 5 mg/clamshell, Day 0
[19] = Uninoculated Fruit, 5 mg/clamshell, Day 1
[20] = Uninoculated Fruit, 5 mg/clamshell, Day 2
[21] = Uninoculated Fruit, 5 mg/clamshell, Day 6

OB1OCc2cc(F)ccc21 [Compound A, 5-fluoro-1,3-dihydro-1-hydroxy-2,1-benzoxaborole]
Gray Mold Incidence (%) (Botrytis cinerea [1]; [4]): 0.0% | Gray Mold Severity (0-4) (Botrytis cinerea [1]; [4]): 0.0 | Gray Mold Incidence (%) (Botrytis cinerea [1]; [5]): 0.0% | Gray Mold Severity (0-4) (Botrytis cinerea [1]; [5]): 0.0 | Gray Mold Incidence (%) (Botrytis cinerea [1]; [6]): 1.3% | Gray Mold Severity (0-4) (Botrytis cinerea [1]; [6]): 0.0 | Gray Mold Incidence (%) (Botrytis cinerea [1]; [7]): 3.8% | Gray Mold Severity (0-4) (Botrytis cinerea [1]; [7]): 0.1 | Gray Mold Incidence (%) (Botrytis cinerea [1]; [8]): 11.3% | Gray Mold Severity (0-4) (Botrytis cinerea [1]; [8]): 0.2 | Gray Mold Incidence (%) (Botrytis cinerea [1]; [9]): 36.3% | Gray Mold Severity (0-4) (Botrytis cinerea [1]; [9]): 0.6 | Gray Mold Incidence (%) (Botrytis cinerea [1]; [10]): 52.5% | Gray Mold Severity (0-4) (Botrytis cinerea [1]; [10]): 1.5 | Gray Mold Incidence (%) (Botrytis cinerea [1]; [11]): 0.0% | Gray Mold Severity (0-4) (Botrytis cinerea [1]; [11]): 0.0 | Gray Mold Incidence (%) (Botrytis cinerea [1]; [12]): 0.0% | Gray Mold Severity (0-4) (Botrytis cinerea [1]; [12]): 0.0 | Gray Mold Incidence (%) (Botrytis cinerea [1]; [13]): 0.0% | Gray Mold Severity (0-4) (Botrytis cinerea [1]; [13]): 0.0 | Gray Mold Incidence (%) (Botrytis cinerea [1]; [14]): 0.0% | Gray Mold Severity (0-4) (Botrytis cinerea [1]; [14]): 0.0 | Gray Mold Incidence (%) (Botrytis cinerea [1]; [15]): 0.0% | Gray Mold Severity (0-4) (Botrytis cinerea [1]; [15]): 0.0 | Gray Mold Incidence (%) (Botrytis cinerea [1]; [16]): 0.0% | Gray Mold Severity (0-4) (Botrytis cinerea [1]; [16]): 0.0 | Gray Mold Incidence (%) (Botrytis cinerea [1]; [17]): 0.0% | Gray Mold Severity (0-4) (Botrytis cinerea [1]; [17]): 0.0 | Gray Mold Incidence (%) (Botrytis cinerea [1]; Uninoculated Fruit, 1 mg/clamshell, Day 0): 0.0% | Gray Mold Incidence (%) (Botrytis cinerea [1]; Uninoculated Fruit, 1 mg/clamshell, Day 1): 1.9% | Gray Mold Incidence (%) (Botrytis cinerea [1]; Uninoculated Fruit, 1 mg/clamshell, Day 2): 21.6% | Gray Mold Incidence (%) (Botrytis cinerea [1]; Uninoculated Fruit, 1 mg/clamshell, Day 3): 89.5% | Gray Mold Incidence (%) (Botrytis cinerea [1]; Uninoculated Fruit, 1 mg/clamshell, Day 4): 100.0% | Gray Mold Incidence (%) (Botrytis cinerea [1]; Uninoculated Fruit, 1 mg/clamshell, Day 5): 100.0% | Gray Mold Incidence (%) (Botrytis cinerea [1]; Uninoculated Fruit, 1 mg/clamshell, Day 6): 100.0% | Gray Mold Incidence (%) (Botrytis cinerea [1]; [18]): 0.5% | Gray Mold Severity (0-4) (Botrytis cinerea [1]; [18]): 0.1 | Gray Mold Incidence (%) (Botrytis cinerea [1]; [19]): 0.5% | Gray Mold Severity (0-4) (Botrytis cinerea [1]; [19]): 0.1 | Gray Mold Incidence (%) (Botrytis cinerea [1]; [20]): 0.9% | Gray Mold Severity (0-4) (Botrytis cinerea [1]; [20]): 0.3 | Gray Mold Incidence (%) (Botrytis cinerea [1]; Uninoculated Fruit, 5 mg/clamshell, Day 3): 3.3% | Gray Mold Incidence (%) (Botrytis cinerea [1]; Uninoculated Fruit, 5 mg/clamshell, Day 4): 16.2% | Gray Mold Incidence (%) (Botrytis cinerea [1]; Uninoculated Fruit, 5 mg/clamshell, Day 5): 31.9% | Gray Mold Incidence (%) (Botrytis cinerea [1]; [21]): 78.5% | Gray Mold Severity (0-4) (Botrytis cinerea [1]; [21]): 3.5 | MIC (Botrytis cinerea [2]; volatile release from Acrylic-Coated Fiberglass): 0.56 µg/mL (≈ 3.69 µM) | MIC (Botrytis cinerea [2]; volatile release from Aramid): 2.2 µg/mL (≈ 14.5 µM) | MIC (Botrytis cinerea [2]; volatile release from Aramid and Fiberglass): 0.56 µg/mL (≈ 3.69 µM) | MIC (Botrytis cinerea [2]; volatile release from Cardboard): 2.2 µg/mL (≈ 14.5 µM) | MIC (Botrytis cinerea [2]; volatile release from Cellulose): 0.56 µg/mL (≈ 3.69 µM) | MIC (Botrytis cinerea [2]; volatile release from Fiberglass): 0.56 µg/mL (≈ 3.69 µM) | MIC (Botrytis cinerea [2]; volatile release from PTFE): 1.1 µg/mL (≈ 7.24 µM) | MIC (Botrytis cinerea [2]; volatile release from PTFE-Coated Fiberglass): 0.56 µg/mL (≈ 3.69 µM) | MIC (Botrytis cinerea [2]; volatile release from Polyethylene PCR Film): 0.28 µg/mL (≈ 1.84 µM) | MIC (Botrytis cinerea [2]; volatile release from Silica): 0.56 µg/mL (≈ 3.69 µM) | MIC (Botrytis cinerea [2]; volatile release from Silicone-Coated Fiberglass): 0.56 µg/mL (≈ 3.69 µM) | MIC (Botrytis cinerea [2]; volatile release from Vinyl-Coated Polyester): 0.56 µg/mL (≈ 3.69 µM) | MIC (Glomerella cingulata): 17.9 µg/mL (≈ 118 µM) | Botrytis inhibition % (in vitro) (Botrytis cinerea [3]; 0.0006 mg per disk): 46% | Botrytis inhibition % (in vitro) (Botrytis cinerea [3]; 0.001 mg per disk): 69% | Botrytis inhibition % (in vitro) (Botrytis cinerea [3]; 0.0024 mg per disk): 85% | Botrytis inhibition % (in vitro) (Botrytis cinerea [3]; 0.005 mg per disk): 100% | Botrytis inhibition % (in vitro) (Botrytis cinerea [3]; 0.01 mg per disk): 100% | Botrytis inhibition % (in vitro) (Botrytis cinerea [3]; 0.023 mg per disk): 100% | Botrytis inhibition % (in vitro) (Botrytis cinerea [3]; 0.04 mg per disk): 100% | Botrytis inhibition % (in vitro) (Botrytis cinerea [3]; 0.08 mg per disk): 100% | Botrytis inhibition % (in vitro) (Botrytis cinerea [3]; 0.16 mg per disk): 100% | Botrytis inhibition % (in vitro) (Botrytis cinerea [3]; 0.31 mg per disk): 100% | Botrytis inhibition % (in vitro) (Botrytis cinerea [3]; 0.63 mg per disk): 100% | Botrytis inhibition % (in vitro) (Botrytis cinerea [3]; 1.25 mg per disk): 100% | Rate giving 100% in vitro inhibition of Botrytis cinerea (Botrytis cinerea [3]; volatile, 14 days at 4 C): 0.005 mg/disk

Reference: patent publication US12329158B2, “Large-scale methods of uniformly coating packaging surfaces with a volatile antimicrobial to preserve food freshness” (AGROFRESH INC., priority 2013, dated 2025)
